Values of other authors, collected in patent US20040253327A1, “Compositions and methods for reducing or controlling blood cholesterol, lipoproteins, triglycerides, and sugar and preventing or treating cardiovascular diseases” (priority 2003, published 2004).

Key:
[1] = human, in vivo

| Compound | patients developing gastrointestinal complaints [1] | reduction of blood triglyceride and LDL cholesterol levels [1] | triglyceride level (after 2 months of supplementation (vs. 161 mg/dl)) [mg/dL] | reduction in triglyceride levels (supplementation for 2 months, P<0.05) [%] |
| --- | --- | --- | --- | --- |
| CN(C)C(=N)N=C(N)N [metformin] | Up to 30% | about 10% |  |  |
| chromium picolinate |  |  | 133 | 17.4 |
